What was measured:
rats = assay: Loss of righting after intravenous administration (rat); assay type: in vivo; details: 20 min; rat (asterisk), intravenous (lateral tail vein), 20 minute observation; acid addition salts, values corrected for the salts
Method: (§1) The acid addition salts of the compounds were dissolved in sterile water for injection, U.S.P, to form a solution, the concentration of which varied from 0.001 mg/ml to 5 mg/ml. Mice or rats were used for the tests. The test solution was administered to the test animal intravenously through the lateral tail vein. The animals were observed over a 20 minute period for loss of righting which is defined as the animal remaining in a supine position for 30 seconds. Five to ten mice and three to six rats were utilized for each dosage. The ED50 was calculated for each test compound either by linear regression or by a standard computer program utilizing the method of Litchfield and Wilcoxon, J. Pharmacol. Exp. Ther., vol. 96, p. 99 (1949). Since different animals were used, the ED50 values in Table 1 are those determined in the mouse except those values marked with an asterisk which were determined in the rat.

mice = assay: Loss of righting after intravenous administration (mouse); assay type: in vivo; details: 20 min, intravenous (lateral tail vein), 20 minute observation, acid addition salts, values corrected for the salts
Method: as §1

SMILES: CCOC(=O)c1cc(-c2nc(C)no2)nn1C(C)c1ccccn1 (centres unmarked)
- ED50 (rats): 0.79 mg/kg

SMILES: CCOC(=O)c1cc(-c2ocnc2C)nn1C(C)c1ccccn1 (centres unmarked)
- ED50 (mice): 4.7 mg/kg

SMILES: CCOC(=O)c1cc(-c2ccccn2)nn1Cc1cccnc1
- ED50 (rats): 30.5 mg/kg

SMILES: CCOC(=O)c1cc(-c2nnco2)nn1C(C)c1ccccn1 (centres unmarked)
- ED50 (mice): 9 mg/kg

SMILES: CCOC(=O)c1cc(CC)n(C(C)c2ccccn2)n1 (centres unmarked) [CH3 / CO2 Et / CH2 CH3 / N / CH]
- ED50 (mice): 9.4 mg/kg

SMILES: CCOC(=O)c1cc(-c2ccco2)nn1Cc1ccccn1
- ED50 (mice): 8.9 mg/kg

SMILES: CCOC(=O)c1nc(-c2cc(C(=O)OCC)n(C(C)c3ccccn3)n2)cs1 (centres unmarked)
- ED50 (mice): 13.6 mg/kg

SMILES: CCOC(=O)c1cc(-c2nccs2)nn1C(C)c1ccccn1 (centres unmarked)
- ED50 (mice): 3.2 mg/kg

SMILES: CCOC(=O)c1cc(COC(C)=O)n(C(C)c2ccccn2)n1 (centres unmarked) [CH3 / CO2 Et / CH2 OCOCH3 / N / CH]
- ED50 (mice): 28.3 mg/kg

SMILES: CCOC(=O)c1cc(-c2cnco2)nn1C(C)c1ccccn1 (centres unmarked)
- ED50 (mice): 2.8 mg/kg

SMILES: CCOC(=O)c1cc(-c2ncc(C)o2)n(C(C)c2ccccn2)n1 (centres unmarked)
- ED50 (rats): 0.85 mg/kg

SMILES: CCOC(=O)c1cc(-c2ncco2)n(C(C)c2ccccn2)n1 (centres unmarked)
- ED50 (rats): 0.85 mg/kg

SMILES: CCOC(=O)c1cc(C(=O)OCC)n(C(C)c2ccccn2)n1 (centres unmarked) [CH3 / CO2 Et / CO2 Et / N / CH, 1-[1-(2-pyridyl)ethyl]pyrazole-3,5-dicarboxylic acid diethyl ester]
- ED50 (mice): 1.4 mg/kg

SMILES: CCOC(=O)c1cc(-c2ccccn2)nn1Cc1ccccn1
- ED50 (rats): 5.1 mg/kg

SMILES: CCOC(=O)c1cc(-c2ccncc2)nn1C(C)c1ccccn1 (centres unmarked)
- ED50 (mice): 12 mg/kg

SMILES: CCOC(=O)c1cc(-c2cc(C)no2)nn1C(C)c1ccccn1 (centres unmarked)
- ED50 (rats): 3.8 mg/kg

SMILES: CCOC(=O)c1cc(-c2ccco2)n(Cc2ccccn2)n1
- ED50 (mice): 17.6 mg/kg

SMILES: CCOC(=O)c1cc(-c2cccnc2)nn1C(C)c1ccccn1 (centres unmarked)
- ED50 (mice): 2.3 mg/kg

SMILES: CCOC(=O)c1cc(-c2ccn(C)c2)n(C(C)c2ccccn2)n1 (centres unmarked)
- ED50 (rats): 4.2 mg/kg

SMILES: CCOC(=O)c1cc(-c2cc(C)no2)n(C(C)c2ccccn2)n1 (centres unmarked)
- ED50 (rats): 7.2 mg/kg

SMILES: CCOC(=O)c1cc(-c2ccccn2)nn1C(C)c1ccccn1 (centres unmarked)
- ED50 (mice): 3.5 mg/kg

SMILES: CCOC(=O)c1cc(-c2ccccc2)nn1C(C)c1ccccn1 (centres unmarked)
- ED50 (rats): 2.8 mg/kg

SMILES: CCOC(=O)c1cc(-c2cc(C)on2)nn1C(C)c1ccccn1 (centres unmarked)
- ED50 (mice): 9.9 mg/kg

SMILES: CCOC(=O)c1cc(-c2ccccc2N)nn1C(C)c1ccccn1 (centres unmarked)
- ED50 (rats): 0.81 mg/kg

SMILES: CCOC(=O)c1cc(-c2ccco2)nn1C(C)c1ccccn1 (centres unmarked)
- ED50 (mice): 1.3 mg/kg

SMILES: CCOC(=O)C(=O)c1cc(C(=O)OCC)n(C(C)c2ccccn2)n1 (centres unmarked) [CH3 / COCO2 Et / CO2 Et / N / CH]
- ED50 (rats): 2.86 mg/kg

SMILES: CCOC(=O)c1cc(C)n(C(C)c2ccccn2)n1 (centres unmarked) [CH3 / CO2 Et / CH3 / N / CH]
- ED50 (mice): 6.9 mg/kg

SMILES: CCOC(=O)c1cc(-c2cccs2)n(Cc2ccccn2)n1
- ED50 (mice): 14.3 mg/kg

SMILES: CCOC(=O)c1cc(-c2cocn2)n(C(C)c2ccccn2)n1 (centres unmarked)
- ED50 (mice): 13.4 mg/kg

SMILES: CCOC(=O)c1cc(-c2ocnc2C)n(C(C)c2ccccn2)n1 (centres unmarked)
- ED50 (rats): 23.2 mg/kg

SMILES: CCOC(=O)c1cc(-c2cccs2)n(C(C)c2ccccn2)n1 (centres unmarked)
- ED50 (mice): 17.6 mg/kg

SMILES: CCOC(=O)c1cc(C)n(C(C)c2cccnc2)n1 (centres unmarked) [CH3 / CO2 Et / CH3 / CH / N]
- ED50 (mice): 26.3 mg/kg

SMILES: CCOC(=O)c1cc(-c2ccc(N)cc2)nn1C(C)c1ccccn1 (centres unmarked)
- ED50 (rats): 2.7 mg/kg

SMILES: CCOC(=O)c1cc(-c2ncc(C)o2)nn1C(C)c1ccccn1 (centres unmarked)
- ED50 (rats): 1.1 mg/kg

SMILES: CCOC(=O)c1cc(-c2cccnc2)nn1Cc1ccccn1
- ED50 (rats): 7 mg/kg

SMILES: CC(=O)OCc1cc(C)n(C(C)c2ccccn2)n1 (centres unmarked) [CH3 / CH2 OCOCH3 / CH3 / N / CH]
- ED50 (mice): 61.1 mg/kg

SMILES: CCOC(=O)c1cc(-c2cn3ccccc3n2)nn1C(C)c1ccccn1 (centres unmarked)
- ED50 (mice): 14.3 mg/kg

SMILES: CCOC(=O)c1cc(-c2cccnc2)n(Cc2ccccn2)n1
- ED50 (rats): 17.7 mg/kg
